Structures are written as SMILES.

The subject of this series is Gambusia affinis. The experiment in a line: Ichthyotoxicity against Gambusia affinis at 5 ppm. In kind it is organism-based. Particulars: in vivo; call rule not given here.
For the molecule `CC/C=C(\C)[C@H]1C(C)=CC(C)=C[C@]1(C)c1oc(OC)c(C)c(=O)c1C`, the outcome was Active.
`C/C=C(\C)[C@H]1C(C)=C[C@@]2(C)[C@@H]1[C@]2(C)c1oc(OC)c(C)c(=O)c1C`: the result was Active.
The same measure for `CC/C=C(\C)[C@H]1C(C)=C[C@@]2(C)[C@@H]1[C@]2(C)c1oc(OC)c(C)c(=O)c1C` [PHOTODEOXYTRIDACHIONE]: “Active”.
